Measured values as given in patent US20210300936A1, “PYRAZOLOTRIAZOLOPYRIMIDINE DERIVATIVES AS A2A RECEPTOR ANTAGONIST” (BEIGENE, LTD., priority 2018, published 2021).

Target: human A2A receptor (A2AR) (Homo sapiens, UniProt P29274)
Test: Luciferase reporter assay (HEK293-A2AR-luc2p/CRE/Hygro cells, 3 nM CGS21680)
Type: cell-based
Conditions: 3 nM CGS21680, 5 h incubation
How it was run: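 HEK293 cells stably expressing A2AR with a CRE-luc2P reporter were seeded in 1% FBS with 1 U/mL adenosine deaminase. After 18 h, cells got 3 nM CGS21680 plus antagonist at 0.1–10000 nM for 5 h, followed by a luciferase readout. IC50 is relative to the 3 nM CGS21680 signal, set as 100%.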

Sequence of human A2A receptor (A2AR) (P29274 whole entry): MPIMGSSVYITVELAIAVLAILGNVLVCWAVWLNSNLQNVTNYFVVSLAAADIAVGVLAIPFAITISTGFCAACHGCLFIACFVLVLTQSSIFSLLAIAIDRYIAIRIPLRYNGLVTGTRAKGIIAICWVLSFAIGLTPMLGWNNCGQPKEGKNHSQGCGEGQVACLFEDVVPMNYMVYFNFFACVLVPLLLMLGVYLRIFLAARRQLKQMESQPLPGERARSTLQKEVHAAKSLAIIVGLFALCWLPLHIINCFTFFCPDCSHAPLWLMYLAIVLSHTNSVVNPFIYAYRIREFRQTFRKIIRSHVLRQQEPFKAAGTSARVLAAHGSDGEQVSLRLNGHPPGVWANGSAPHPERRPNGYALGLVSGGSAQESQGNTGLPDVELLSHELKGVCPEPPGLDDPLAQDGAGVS

Row | SMILES | IC50 [µM]
1 | CC(C(=O)N1CCc2ccccc2C1)(c1ccccc1)n1ncc2c1nc(N)n1nc(-c3ccco3)nc21 (stereo not shown) [Compound B18, 2-(5-amino-2-(furan-2-yl)-7H-pyrazolo[4,3-e][1,2,4]triazolo[1,5-c]pyrimidin-7-yl)-1-(3,4-dihydroisoquinolin-2(1H)-yl)-2-phenylpropan-1-one] | 0.111
2 | CC(C(=O)N1CCc2cc(F)ccc2C1)(c1ccccc1)n1ncc2c1nc(N)n1nc(-c3ccco3)nc21 (stereo not shown) [Compound B19, 2-(5-amino-2-(furan-2-yl)-7H-pyrazolo[4,3-e][1,2,4]triazolo[1,5-c]pyrimidin-7-yl)-1-(6-fluoro-3,4-dihydroisoquinolin-2(1H)-yl)-2-phenylpropan-1-one] | 0.112
3 | CN(C)C(=O)C(C)(c1ccccc1)n1ncc2c1nc(N)n1nc(-c3ccco3)nc21 (stereo not shown) [Compound B20, 2-(5-amino-2-(furan-2-yl)-7H-pyrazolo[4,3-e][1,2,4]triazolo[1,5-c]pyrimidin-7-yl)-N,N-dimethyl-2-phenylpropanamide] | 0.02
4 | CC(C(=O)N1CCNCC1)(c1ccccc1)n1ncc2c1nc(N)n1nc(-c3ccco3)nc21 (stereo not shown) [Compound B21, 2-(5-amino-2-(furan-2-yl)-7H-pyrazolo[4,3-e][1,2,4]triazolo[1,5-c]pyrimidin-7-yl)-2-phenyl-1-(piperazin-1-yl)propan-1-one] | 0.0967
5 | CC(C(=O)N1CC2(COC2)C1)(c1ccccc1)n1ncc2c1nc(N)n1nc(-c3ccco3)nc21 (stereo not shown) [Compound B22, 2-(5-amino-2-(furan-2-yl)-7H-pyrazolo[4,3-e][1,2,4]triazolo[1,5-c]pyrimidin-7-yl)-2-phenyl-1-(2-oxa-6-azaspiro[3.3]heptan-6-yl)propan-1-one] | 0.016
6 | CC(C(=O)N1CCCC1)(c1ccccc1)n1ncc2c1nc(N)n1nc(-c3ccco3)nc21 (stereo not shown) [Compound B23, 2-(5-amino-2-(furan-2-yl)-7H-pyrazolo[4,3-e][1,2,4]triazolo[1,5-c]pyrimidin-7-yl)-2-phenyl-1-(pyrrolidin-1-yl)propan-1-one] | 0.0249
7 | CC(C(=O)N1CCC1)(c1ccccc1)n1ncc2c1nc(N)n1nc(-c3ccco3)nc21 (stereo not shown) [Compound B24, 2-(5-amino-2-(furan-2-yl)-7H-pyrazolo[4,3-e][1,2,4]triazolo[1,5-c]pyrimidin-7-yl)-1-(azetidin-1-yl)-2-phenylpropan-1-one] | 0.012
8 | CC1(O)CCN(C(=O)C(C)(c2ccccc2)n2ncc3c2nc(N)n2nc(-c4ccco4)nc32)CC1 (stereo not shown) [Compound B25, 2-(5-amino-2-(furan-2-yl)-7H-pyrazolo[4,3-e][1,2,4]triazolo[1,5-c]pyrimidin-7-yl)-1-(4-hydroxy-4-methylpiperidin-1-yl)-2-phenylpropan-1-one] | 0.0237
9 | CC(C(=O)N1CC2(CCOCC2)C1)(c1ccccc1)n1ncc2c1nc(N)n1nc(-c3ccco3)nc21 (stereo not shown) [Compound B26, 2-(5-amino-2-(furan-2-yl)-7H-pyrazolo[4,3-e][1,2,4]triazolo[1,5-c]pyrimidin-7-yl)-2-phenyl-1-(7-oxa-2-azaspiro[3.5]nonan-2-yl)propan-1-one] | 0.0154
10 | CN1CCN(C(=O)C(C)(c2ccccc2)n2ncc3c2nc(N)n2nc(-c4ccco4)nc32)CC1 (stereo not shown) [Compound B27, 2-(5-amino-2-(furan-2-yl)-7H-pyrazolo[4,3-e][1,2,4]triazolo[1,5-c]pyrimidin-7-yl)-1-(4-methylpiperazin-1-yl)-2-phenylpropan-1-one] | 0.0303
11 | CO[C@H]1CCCN(C(=O)C(C)(c2ccccc2)n2ncc3c2nc(N)n2nc(-c4ccco4)nc32)C1 (stereo partly drawn) [Compound B28, 2-(5-amino-2-(furan-2-yl)-7H-pyrazolo[4,3-e][1,2,4]triazolo[1,5-c]pyrimidin-7-yl)-1-((S)-3-methoxypiperidin-1-yl)-2-phenylpropan-1-one] | 0.0335
12 | CO[C@H]1CCN(C(=O)C(C)(c2ccccc2)n2ncc3c2nc(N)n2nc(-c4ccco4)nc32)C1 (stereo partly drawn) [Compound B29, 2-(5-amino-2-(furan-2-yl)-7H-pyrazolo[4,3-e][1,2,4]triazolo[1,5-c]pyrimidin-7-yl)-1-((S)-3-methoxypyrrolidin-1-yl)-2-phenylpropan-1-one] | 0.0765
13 | CO[C@@H]1CCN(C(=O)C(C)(c2ccccc2)n2ncc3c2nc(N)n2nc(-c4ccco4)nc32)C1 (stereo partly drawn) [Compound B30, 2-(5-amino-2-(furan-2-yl)-7H-pyrazolo[4,3-e][1,2,4]triazolo[1,5-c]pyrimidin-7-yl)-1-((R)-3-methoxypyrrolidin-1-yl)-2-phenylpropan-1-one] | 0.0973
14 | CO[C@@H]1CCCN(C(=O)C(C)(c2ccccc2)n2ncc3c2nc(N)n2nc(-c4ccco4)nc32)C1 (stereo partly drawn) [Compound B31, 2-(5-amino-2-(furan-2-yl)-7H-pyrazolo[4,3-e][1,2,4]triazolo[1,5-c]pyrimidin-7-yl)-1-((R)-3-methoxypiperidin-1-yl)-2-phenylpropan-1-one] | 0.046
15 | CC(C(=O)N1CCC[C@@H](O)C1)(c1ccccc1)n1ncc2c1nc(N)n1nc(-c3ccco3)nc21 (stereo partly drawn) [Compound B32, 2-(5-amino-2-(furan-2-yl)-7H-pyrazolo[4,3-e][1,2,4]triazolo[1,5-c]pyrimidin-7-yl)-1-((R)-3-hydroxypiperidin-1-yl)-2-phenylpropan-1-one] | 0.111
16 | COC(=O)C1CC2(CCN(C(=O)C(C)(c3ccccc3)n3ncc4c3nc(N)n3nc(-c5ccco5)nc43)CC2)C1 (stereo not shown) [Compound B33, methyl 7-(2-(5-amino-2-(furan-2-yl)-7H-pyrazolo[4,3-e][1,2,4]triazolo[1,5-c]pyrimidin-7-yl)-2-phenylpropanoyl)-7-azaspiro[3.5]nonane-2-carboxylate] | 0.0165
17 | CC(C(=O)N1CCC2(CC1)COC2)(c1ccccc1)n1ncc2c1nc(N)n1nc(-c3ccco3)nc21 (stereo not shown) [Compound B34] | 0.014
18 | COCCOc1ccc(N2CCN(C(=O)C(C)n3cc4c(nc(N)n5nc(-c6ccco6)nc45)n3)CC2)cc1 (stereo not shown) [Compound C1, 2-(5-amino-2-(furan-2-yl)-8H-pyrazolo[4,3-e][1,2,4]triazolo[1,5-c]pyrimidin-8-yl)-1-(4-(4-(2-methoxyethoxy)phenyl)piperazin-1-yl)propan-1-one] | 0.0284
19 | COCCOc1ccc(N2CCN(C(=O)C(C(C)C)n3cc4c(nc(N)n5nc(-c6ccco6)nc45)n3)CC2)cc1 (stereo not shown) [Compound C2, 2-(5-amino-2-(furan-2-yl)-8H-pyrazolo[4,3-e][1,2,4]triazolo[1,5-c]pyrimidin-8-yl)-1-(4-(4-(2-methoxyethoxy)phenyl)piperazin-1-yl)-3-methylbutan-1-one] | 0.648
20 | COCCOc1ccc(N2CCN(C(=O)C(C)(C)n3cc4c(nc(N)n5nc(-c6ccco6)nc45)n3)CC2)cc1 [Compound C3, 2-(5-amino-2-(furan-2-yl)-8H-pyrazolo[4,3-e][1,2,4]triazolo[1,5-c]pyrimidin-8-yl)-1-(4-(4-(2-methoxyethoxy)phenyl)piperazin-1-yl)-2-methylpropan-1-one] | 1.87
21 | CCC(C(=O)N1CCN(c2ccc(OCCOC)cc2)CC1)n1cc2c(nc(N)n3nc(-c4ccco4)nc23)n1 (stereo not shown) [Compound C4, 2-(5-amino-2-(furan-2-yl)-8H-pyrazolo[4,3-e][1,2,4]triazolo[1,5-c]pyrimidin-8-yl)-1-(4-(4-(2-methoxyethoxy)phenyl)piperazin-1-yl)butan-1-one] | 0.14
22 | CCCC(C(=O)N1CCN(c2ccc(OCCOC)cc2)CC1)n1cc2c(nc(N)n3nc(-c4ccco4)nc23)n1 (stereo not shown) [Compound C5, 2-(5-amino-2-(furan-2-yl)-8H-pyrazolo[4,3-e][1,2,4]triazolo[1,5-c]pyrimidin-8-yl)-1-(4-(4-(2-methoxyethoxy)phenyl)piperazin-1-yl)pentan-1-one] | 0.132
23 | COCCOCCOc1ccc(N2CCN(C(=O)C(C)(C)n3cc4c(nc(N)n5nc(-c6ccco6)nc45)n3)CC2)cc1 [Compound C6, 2-(5-amino-2-(furan-2-yl)-8H-pyrazolo[4,3-e][1,2,4]triazolo[1,5-c]pyrimidin-8-yl)-1-(4-(4-(2-(2-methoxyethoxy)ethoxy)phenyl)piperazin-1-yl)-2-methylpropan-1-one] | 3.18
24 | CCCC(C(=O)N1CCN(c2ccc(OCCOCCOC)cc2)CC1)n1cc2c(nc(N)n3nc(-c4ccco4)nc23)n1 (stereo not shown) [Compound C7, 2-(5-amino-2-(furan-2-yl)-8H-pyrazolo[4,3-e][1,2,4]triazolo[1,5-c]pyrimidin-8-yl)-1-(4-(4-(2-(2-methoxyethoxy)ethoxy)phenyl)piperazin-1-yl)pentan-1-one] | 0.186
25 | CCC(C(=O)N1CCN(c2ccc(OCCOCCOC)cc2)CC1)n1cc2c(nc(N)n3nc(-c4ccco4)nc23)n1 (stereo not shown) [Compound C8, 2-(5-amino-2-(furan-2-yl)-8H-pyrazolo[4,3-e][1,2,4]triazolo[1,5-c]pyrimidin-8-yl)-1-(4-(4-(2-(2-methoxyethoxy)ethoxy)phenyl)piperazin-1-yl)butan-1-one] | 0.243
26 | COCCOCCOc1ccc(N2CCN(C(=O)C(C)n3cc4c(nc(N)n5nc(-c6ccco6)nc45)n3)CC2)cc1 (stereo not shown) [Compound C9, 2-(5-amino-2-(furan-2-yl)-8H-pyrazolo[4,3-e][1,2,4]triazolo[1,5-c]pyrimidin-8-yl)-1-(4-(4-(2-(2-methoxyethoxy)ethoxy)phenyl)piperazin-1-yl)propan-1-one] | 0.0398
27 | CCCCC(C(=O)N1CCN(c2ccc(OCCOC)cc2)CC1)n1cc2c(nc(N)n3nc(-c4ccco4)nc23)n1 (stereo not shown) [Compound C10, 2-(5-amino-2-(furan-2-yl)-8H-pyrazolo[4,3-e][1,2,4]triazolo[1,5-c]pyrimidin-8-yl)-1-(4-(4-(2-methoxyethoxy)phenyl)piperazin-1-yl)hexan-1-one] | 0.126
28 | CCCCC(C(=O)N1CCN(c2ccc(OCCOCCOC)cc2)CC1)n1cc2c(nc(N)n3nc(-c4ccco4)nc23)n1 (stereo not shown) [Compound C11, 2-(5-amino-2-(furan-2-yl)-8H-pyrazolo[4,3-e][1,2,4]triazolo[1,5-c]pyrimidin-8-yl)-1-(4-(4-(2-(2-methoxyethoxy)ethoxy)phenyl)piperazin-1-yl)hexan-1-one] | 0.118
